Measured values reported in the NIST ThermoML archive (doi:10.1021/je034136z).
Where “and” joins values, the source holds several entries; their conditions need not be identical. Equal values may be shown once. ± gives the expanded uncertainty stated by the source.

Settings: Liquid

For `CCC(C)O` (centres undefined) [butan-2-ol], the “vapor or sublimation pressure” value (323.11 K) was 10.57 ± 0.34 kPa.
In the case of `CC(C)O` [propan-2-ol], the “vapor or sublimation pressure” value (323.16 K) is reported as 23.47 ± 0.35 kPa.
With `CCO` [ethanol] the “vapor or sublimation pressure” value (323.17 K) was 29.27 ± 0.36 kPa.
With `CO` [methanol] the “vapor or sublimation pressure” value (323.14 K) was 55.57 ± 0.41 kPa.
In the case of `C=C(C)C` [2-methylpropene], the “vapor or sublimation pressure” value (322.79 K) is reported as 605.14 ± 2 kPa, the “vapor or sublimation pressure” value (323.11 K) is reported as 608.94 ± 2 kPa and the “vapor or sublimation pressure” value (323.14 K) is reported as 608.84 ± 2 kPa and 609.14 ± 2 kPa. The “vapor or sublimation pressure” value (323.15 K) was 611.04 ± 2.1 kPa.
In the case of `CC(C)(C)O` [2-methylpropan-2-ol], the “vapor or sublimation pressure” value (322.78 K) is reported as 23.07 ± 0.35 kPa.
